In publication PMC3961306, “Comparison of the Cancer Gene Targeting and Biochemical Selectivities of All Targeted Kinase Inhibitors Approved for Clinical Use” (PLoS ONE, 2014):
Where two headings read alike, the source gives them in different places.

How the values were obtained:
Experiment in all cases: Kinase profiling in a biochemical assay panel (mobility shift assays and ELISA), %-inhibition at 1 μM; selectivity entropy
[1] = molecular target: panel of more than 300 wild-type and mutant kinases (313 kinase panel) (Homo sapiens, UniProt P11309); details: kinase PIM1; 1 μM
[2] = molecular target: panel of more than 300 wild-type and mutant kinases (313 kinase panel) (Homo sapiens, UniProt P17948); details: kinase FLT1; compound at 1 μM
[3] = molecular target: T1, panel of more than 300 wild-type and mutant kinases (313 kinase panel) (Homo sapiens, UniProt P21709); details: kinase EPHA1; compound at 1 μM
T1 sequence (P21709 26-976): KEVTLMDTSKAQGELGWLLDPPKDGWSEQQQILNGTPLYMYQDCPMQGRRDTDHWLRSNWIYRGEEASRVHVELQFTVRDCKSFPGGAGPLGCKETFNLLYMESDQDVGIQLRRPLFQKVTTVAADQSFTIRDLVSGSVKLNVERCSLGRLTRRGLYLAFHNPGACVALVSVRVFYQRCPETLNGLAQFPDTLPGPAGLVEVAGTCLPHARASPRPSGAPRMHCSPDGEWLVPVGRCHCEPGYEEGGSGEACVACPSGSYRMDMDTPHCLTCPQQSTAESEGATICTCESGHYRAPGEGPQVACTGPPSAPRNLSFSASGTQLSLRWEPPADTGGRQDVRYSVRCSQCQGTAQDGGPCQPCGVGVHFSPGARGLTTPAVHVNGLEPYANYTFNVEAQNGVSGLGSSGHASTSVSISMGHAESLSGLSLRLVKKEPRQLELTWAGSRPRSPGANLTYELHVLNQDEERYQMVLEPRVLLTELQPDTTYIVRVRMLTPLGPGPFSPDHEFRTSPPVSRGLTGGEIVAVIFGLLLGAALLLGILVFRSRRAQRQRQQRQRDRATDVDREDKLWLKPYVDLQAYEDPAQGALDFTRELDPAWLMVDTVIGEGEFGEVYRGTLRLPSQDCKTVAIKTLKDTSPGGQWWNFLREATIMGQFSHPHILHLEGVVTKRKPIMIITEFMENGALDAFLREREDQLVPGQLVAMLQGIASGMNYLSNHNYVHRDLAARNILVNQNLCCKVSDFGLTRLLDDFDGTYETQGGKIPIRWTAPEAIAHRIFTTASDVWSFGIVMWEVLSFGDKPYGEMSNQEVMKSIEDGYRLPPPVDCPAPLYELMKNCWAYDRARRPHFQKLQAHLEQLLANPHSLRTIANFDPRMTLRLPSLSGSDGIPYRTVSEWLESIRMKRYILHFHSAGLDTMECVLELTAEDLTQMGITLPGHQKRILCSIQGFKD

[4] = molecular target: panel of more than 300 wild-type and mutant kinases (313 kinase panel) (Homo sapiens, UniProt P53355); details: kinase DAPK1; compound at 1 μM
[5] = molecular target: panel of more than 300 wild-type and mutant kinases (313 kinase panel) (Homo sapiens, UniProt Q86V86)
[6] = molecular target: panel of more than 300 wild-type and mutant kinases (313 kinase panel) (Homo sapiens, UniProt Q8TDX7); details: kinase NEK7; 1 μM
[7] = molecular target: T2, panel of more than 300 wild-type and mutant kinases (313 kinase panel) (Homo sapiens, UniProt Q8TF76); details: kinase Haspin; compound at 1 μM
T2 sequence (Q8TF76 1-798): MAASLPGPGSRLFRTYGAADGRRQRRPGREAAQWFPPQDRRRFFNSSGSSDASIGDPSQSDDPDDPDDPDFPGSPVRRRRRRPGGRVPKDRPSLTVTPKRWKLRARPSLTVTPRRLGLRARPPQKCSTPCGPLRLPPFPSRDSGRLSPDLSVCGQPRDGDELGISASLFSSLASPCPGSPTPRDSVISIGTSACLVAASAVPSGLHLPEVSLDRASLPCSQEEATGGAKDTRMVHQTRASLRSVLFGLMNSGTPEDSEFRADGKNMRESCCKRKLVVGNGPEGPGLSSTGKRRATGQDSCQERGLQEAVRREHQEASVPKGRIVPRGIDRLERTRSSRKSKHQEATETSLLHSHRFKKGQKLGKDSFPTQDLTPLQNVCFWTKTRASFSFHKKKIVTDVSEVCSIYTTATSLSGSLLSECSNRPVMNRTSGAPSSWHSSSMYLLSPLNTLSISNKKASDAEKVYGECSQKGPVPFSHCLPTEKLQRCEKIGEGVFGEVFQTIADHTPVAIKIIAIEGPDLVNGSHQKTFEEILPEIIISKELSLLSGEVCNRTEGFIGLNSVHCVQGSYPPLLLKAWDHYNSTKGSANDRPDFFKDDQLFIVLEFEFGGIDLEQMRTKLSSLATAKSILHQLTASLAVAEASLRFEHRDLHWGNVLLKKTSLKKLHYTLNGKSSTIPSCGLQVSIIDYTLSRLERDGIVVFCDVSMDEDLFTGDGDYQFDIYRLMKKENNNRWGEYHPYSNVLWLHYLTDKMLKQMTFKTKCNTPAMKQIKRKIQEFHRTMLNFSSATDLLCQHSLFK

[8] = molecular target: panel of more than 300 wild-type and mutant kinases (313 kinase panel) (Homo sapiens, UniProt Q9BUB5)
Sequence of panel of more than 300 wild-type and mutant kinases (313 kinase panel) (Homo sapiens, UniProt Q9BUB5) (Q9BUB5 whole entry, change not shown): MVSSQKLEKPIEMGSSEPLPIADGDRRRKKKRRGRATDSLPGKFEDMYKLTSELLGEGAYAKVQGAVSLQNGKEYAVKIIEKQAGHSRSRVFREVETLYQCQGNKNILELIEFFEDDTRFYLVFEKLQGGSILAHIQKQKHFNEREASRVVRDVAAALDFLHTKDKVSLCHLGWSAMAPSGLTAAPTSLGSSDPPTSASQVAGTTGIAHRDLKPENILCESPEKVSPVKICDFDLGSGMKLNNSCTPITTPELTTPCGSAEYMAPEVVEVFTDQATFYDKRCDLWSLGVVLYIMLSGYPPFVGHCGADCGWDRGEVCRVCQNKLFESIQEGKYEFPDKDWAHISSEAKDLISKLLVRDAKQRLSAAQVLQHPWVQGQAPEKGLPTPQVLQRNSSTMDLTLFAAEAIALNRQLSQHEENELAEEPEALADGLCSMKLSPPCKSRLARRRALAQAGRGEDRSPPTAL

[9] = molecular target: panel of more than 300 wild-type and mutant kinases (313 kinase panel) (Homo sapiens, UniProt Q9P1W9); details: kinase PIM2; 1 μM
[10] = system: panel of more than 300 wild-type and mutant kinases (313 kinase panel)
[11] = kinase EGFR(d746-750), compound at 1 μM
[12] = kinase EGFR(d746-750/T790M), compound at 1 μM
[13] = kinase EML4-ALK, compound at 1 μM

SMILES: CCCS(=O)(=O)Nc1ccc(F)c(C(=O)c2c[nH]c3ncc(-c4ccc(Cl)cc4)cc23)c1F [vemurafenib]
- %-inhibition of PIM1 [1]: -3.41%
- %-inhibition of FLT1 [2]: 25%
- %-inhibition of EPHA1 [3]: -9%
- %-inhibition of DAPK1 [4]: -0.115%
- %-inhibition of PIM3 ([5]; kinase PIM3, 1 μM): -5%
- %-inhibition of NEK7 [6]: -3.56%
- %-inhibition of Haspin [7]: -3%
- %-inhibition of MNK1 ([8]; kinase MNK1, 1 μM): 23%
- %-inhibition of PIM2 [9]: -2%
- %-inhibition of EGFR(d746-750) [10, 11]: 2.81%
- %-inhibition of EGFR(d746-750/T790M) [10, 12]: 4.62%
- %-inhibition of EML4-ALK [10, 13]: -1.53%
- %-inhibition of LYNb ([10]; kinase LYNb, compound at 1 μM): 62%
- %-inhibition of NPM1-ALK ([10]; kinase NPM1-ALK, 1 μM): -1.72%
- %-inhibition of PKCβ2 ([10]; kinase PKCβ2, 1 μM): -3%
- %-inhibition of SRM ([10]; kinase SRM, 1 μM): 102%
- %-inhibition of TAK1-TAB1 ([10]; kinase TAK1-TAB1, 1 μM): 9%

SMILES: Cc1cn(-c2cc(NC(=O)c3ccc(C)c(Nc4nccc(-c5cccnc5)n4)c3)cc(C(F)(F)F)c2)cn1 [nilotinib]
- %-inhibition of PIM1 [1]: 8%
- %-inhibition of FLT1 [2]: 32%
- %-inhibition of EPHA1 [3]: 61%
- %-inhibition of DAPK1 [4]: -11%
- %-inhibition of PIM3 ([5]; 1 µM): 13%
- %-inhibition of NEK7 [6]: -3.77%
- %-inhibition of Haspin [7]: 2.56%
- %-inhibition of MNK1 ([8]; 1 µM): -1.26%
- %-inhibition of PIM2 [9]: 7%
- %-inhibition of NPM1-ALK [10]: -64%
- %-inhibition of TAK1-TAB1 [10]: 5%
- %-inhibition of EML4-ALK ([10]; 1 µM): -12%
- %-inhibition of LYNb ([10]; 1 µM): 85%
- %-inhibition of PKCβ2 ([10]; 1 µM): 1.66%
- %-inhibition of SRM ([10]; 1 µM): 27%

SMILES: CNC(=O)c1cc(Oc2ccc(NC(=O)Nc3ccc(Cl)c(C(F)(F)F)c3)c(F)c2)ccn1 [regorafenib]
- %-inhibition of PIM1 [1]: -9%
- %-inhibition of FLT1 [2]: 102%
- %-inhibition of EPHA1 [3]: 55%
- %-inhibition of DAPK1 [4]: -11%
- %-inhibition of PIM3 ([5]; kinase PIM3, 1 μM): -6.53%
- %-inhibition of NEK7 [6]: -13%
- %-inhibition of Haspin [7]: -8%
- %-inhibition of MNK1 ([8]; kinase MNK1, 1 μM): 7%
- %-inhibition of PIM2 [9]: -9%
- %-inhibition of EGFR(d746-750) [10, 11]: 12%
- %-inhibition of EGFR(d746-750/T790M) [10, 12]: 3.63%
- %-inhibition of EML4-ALK [10, 13]: -7%
- %-inhibition of LYNb ([10]; kinase LYNb, compound at 1 μM): 85%
- %-inhibition of NPM1-ALK ([10]; kinase NPM1-ALK, 1 μM): -7%
- %-inhibition of PKCβ2 ([10]; kinase PKCβ2, 1 μM): -9%
- %-inhibition of SRM ([10]; kinase SRM, 1 μM): 66%
- %-inhibition of TAK1-TAB1 ([10]; kinase TAK1-TAB1, 1 μM): 60%

SMILES: Cc1ccc(Nc2nccc(N(C)c3ccc4c(C)n(C)nc4c3)n2)cc1S(N)(=O)=O [pazopanib]
- %-inhibition of PIM1 [1]: -1.49%
- %-inhibition of FLT1 [2]: 100%
- %-inhibition of EPHA1 [3]: 54%
- %-inhibition of DAPK1 [4]: 0.316%
- %-inhibition of PIM3 ([5]; kinase PIM3, 1 μM): -4%
- %-inhibition of NEK7 [6]: -4.75%
- %-inhibition of Haspin [7]: -0.746%
- %-inhibition of MNK1 ([8]; kinase MNK1, 1 μM): -2%
- %-inhibition of PIM2 [9]: -4%
- %-inhibition of NPM1-ALK [10]: 21%
- %-inhibition of TAK1-TAB1 [10]: -4.34%
- %-inhibition of EML4-ALK ([10]; 1 µM): 27%
- %-inhibition of LYNb ([10]; 1 µM): 85%
- %-inhibition of PKCβ2 ([10]; 1 µM): 4.55%
- %-inhibition of SRM ([10]; 1 µM): 63%

SMILES: N#CC[C@H](C1CCCC1)n1cc(-c2ncnc3[nH]ccc23)cn1 [ruxolitinib]
- %-inhibition of PIM1 [1]: -8%
- %-inhibition of FLT1 [2]: 11%
- %-inhibition of EPHA1 [3]: 43%
- %-inhibition of DAPK1 [4]: 71%
- %-inhibition of PIM3 ([5]; kinase PIM3, 1 μM): -9%
- %-inhibition of NEK7 [6]: -1.81%
- %-inhibition of Haspin [7]: -6.62%
- %-inhibition of MNK1 ([8]; kinase MNK1, 1 μM): 8.57%
- %-inhibition of PIM2 [9]: -4%
- %-inhibition of NPM1-ALK [10]: 65%
- %-inhibition of TAK1-TAB1 [10]: 6%
- %-inhibition of EGFR(d746-750) ([10]; 1 µM): -1.14%
- %-inhibition of EGFR(d746-750/T790M) ([10]; 1 µM): 1.32%
- %-inhibition of EML4-ALK ([10]; 1 µM): 64%
- %-inhibition of LYNb ([10]; 1 µM): 8%
- %-inhibition of PKCβ2 ([10]; 1 µM): 5%
- %-inhibition of SRM ([10]; 1 µM): 4.69%

SMILES: CO[C@H]1C[C@@H]2CC[C@@H](C)[C@@](O)(O2)C(=O)C(=O)N2CCCC[C@H]2C(=O)O[C@H]([C@H](C)C[C@@H]2CC[C@@H](OCCO)[C@H](OC)C2)CC(=O)[C@H](C)/C=C(\C)[C@@H](O)[C@@H](OC)C(=O)[C@H](C)C[C@H](C)/C=C/C=C/C=C/1C [everolimus]
- %-inhibition of PIM1 [1]: -9%
- %-inhibition of FLT1 [2]: -2.63%
- %-inhibition of EPHA1 [3]: -10%
- %-inhibition of DAPK1 [4]: -15%
- %-inhibition of PIM3 ([5]; kinase PIM3, 1 μM): -4%
- %-inhibition of NEK7 [6]: -11%
- %-inhibition of Haspin [7]: -0.358%
- %-inhibition of MNK1 ([8]; kinase MNK1, 1 μM): -0.485%
- %-inhibition of PIM2 [9]: -7%
- %-inhibition of EGFR(d746-750) [10, 11]: -4%
- %-inhibition of EGFR(d746-750/T790M) [10, 12]: -5%
- %-inhibition of EML4-ALK [10, 13]: -3.62%
- %-inhibition of LYNb ([10]; kinase LYNb, compound at 1 μM): -1.66%
- %-inhibition of NPM1-ALK ([10]; kinase NPM1-ALK, 1 μM): -5.62%
- %-inhibition of PKCβ2 ([10]; kinase PKCβ2, 1 μM): -9%
- %-inhibition of SRM ([10]; kinase SRM, 1 μM): 0.151%
- %-inhibition of TAK1-TAB1 ([10]; kinase TAK1-TAB1, 1 μM): 1.54%

SMILES: CC(=O)Nc1cccc(-n2c(=O)n(C3CC3)c(=O)c3c(Nc4ccc(I)cc4F)n(C)c(=O)c(C)c32)c1 [trametinib]
- %-inhibition of PIM1 [1]: 4.44%
- %-inhibition of FLT1 [2]: -2.75%
- %-inhibition of EPHA1 [3]: -1.61%
- %-inhibition of DAPK1 [4]: -6%
- %-inhibition of PIM3 ([5]; kinase PIM3, 1 μM): 8.44%
- %-inhibition of NEK7 [6]: 1.63%
- %-inhibition of Haspin [7]: 5%
- %-inhibition of MNK1 ([8]; kinase MNK1, 1 μM): -3%
- %-inhibition of PIM2 [9]: -4%
- %-inhibition of EGFR(d746-750) [10, 11]: -2.58%
- %-inhibition of EGFR(d746-750/T790M) [10, 12]: 1.72%
- %-inhibition of EML4-ALK [10, 13]: -2.51%
- %-inhibition of LYNb ([10]; kinase LYNb, compound at 1 μM): -2.58%
- %-inhibition of NPM1-ALK ([10]; kinase NPM1-ALK, 1 μM): -1.79%
- %-inhibition of PKCβ2 ([10]; kinase PKCβ2, 1 μM): -1.58%
- %-inhibition of SRM ([10]; kinase SRM, 1 μM): -4%
- %-inhibition of TAK1-TAB1 ([10]; kinase TAK1-TAB1, 1 μM): 5.47%
